From ChEMBL document CHEMBL3745696, “Synthesis and cytotoxic activity of novel hexahydropyrrolo[2,3-b]indole imidazolium salts” (Bioorg Med Chem Lett, 2016) come the findings set out here.

Holding throughout (assay type): functional, cell-based
One experiment deals with SW480. Briefly: Cytotoxicity against human SW480 cells by MTT assay.
Experiment [1] in a line: Cytotoxicity against human SMMC7721 cells by MTT assay. Particulars: SMMC-7721.
For another experiment, the system named is MCF7. Briefly: Cytotoxicity against human MCF7 cells by MTT assay.
Experiment [2] is described as follows: Cytotoxicity against human HL60 cells by MTT assay. The settings on record: HL-60.
In a further experiment the test system is A549. Briefly: Cytotoxicity against human A549 cells by MTT assay.

Molecules are shown by their SMILES.

For `Cc1cc2ncn(CC(=O)N3CCC4(C)c5ccccc5N(C)C34)c2cc1C` (stereo not given), the 50% inhibitory concentration (IC50) (in the experiment with SW480; in experiment [1]; with MCF7; in experiment [2]; in the experiment with A549) was greater than 20 µM each time.

Turning to `CN1c2ccccc2C2(C)CCN(C(=O)Cn3cnc4ccccc43)C12` (stereo not given), the IC50 (with SW480; in experiment [1]; with MCF7; in experiment [2]; in the experiment on A549) was greater than 20 µM each time.

On to `Cc1ccc(C[n+]2ccn(CC(=O)N3CCC4(C)c5ccccc5N(Cc5ccccc5)C34)c2C)cc1` (stereo not given), for which the IC50 with SW480 is 9.71 µM; in experiment [1], 19.5 µM; with MCF7, 7.26 µM; in experiment [2], 0.47 µM; in the experiment with A549 it was greater than 20 µM.

As for `CC12CCN(C(=O)Cn3c[n+](CC(=O)c4ccccc4)c4ccccc43)C1N(Cc1ccccc1)c1ccccc12` (stereo not given), the 50% inhibitory concentration (IC50) was 8.43 µM in the experiment with SW480; 14.5 µM in experiment [1]; 8.16 µM in the experiment with MCF7; 5.72 µM in experiment [2]; greater than 20 µM with A549.

For `COc1ccc(C(=O)C[n+]2ccn(CC(=O)N3CCC4(C)c5ccccc5N(Cc5ccccc5)C34)c2C)cc1` (stereo not given), the IC50 was greater than 20 µM in the experiment with SW480; greater than 20 µM in experiment [1]; 10.6 µM in the experiment with MCF7; 1.3 µM in experiment [2]; greater than 20 µM in the experiment with A549.

In the case of `CC12CCN(C(=O)Cn3c[n+](CC(=O)c4ccc(Br)cc4)c4ccccc43)C1N(Cc1ccccc1)c1ccccc12` (stereo not given), the IC50 turned out to be 9.18 µM in the experiment on SW480; 8.43 µM in experiment [1]; 8.15 µM with MCF7; 2.93 µM in experiment [2]; 8.07 µM in the experiment with A549.

For `Cc1n(CC(=O)N2CCC3(C)c4ccccc4N(Cc4ccccc4)C23)cc[n+]1CC(=O)c1ccc2ccccc2c1` (stereo not given), the IC50 with SW480 came out at 7.78 µM; in experiment [1], 4.79 µM; with MCF7, 5.67 µM; in experiment [2], 2.2 µM; in the experiment with A549 it was 11.2 µM.

On to `COc1ccc(C(=O)C[n+]2cn(CC(=O)N3CCC4(C)c5ccccc5N(Cc5ccccc5)C34)c3ccccc32)cc1` (stereo not given), for which the half-inhibitory concentration (IC50) was 8.35 µM in the experiment on SW480; 10 µM in experiment [1]; 7.83 µM in the experiment with MCF7; 5.94 µM in experiment [2]; greater than 20 µM in the experiment on A549.

On to `Cc1n(CC(=O)N2CCC3(C)c4ccccc4N(Cc4ccccc4)C23)cc[n+]1CC(=O)c1ccc(Br)cc1` (stereo not given), for which the IC50 in the experiment with SW480 was greater than 20 µM; in experiment [1] it was greater than 20 µM; in the experiment on MCF7, greater than 20 µM; in experiment [2], 7.75 µM; with A549, greater than 20 µM.

Turning to `CC12CCN(C(=O)Cn3c[n+](CC(=O)c4ccc5ccccc5c4)c4ccccc43)C1N(Cc1ccccc1)c1ccccc12` (stereo not given), the 50% inhibitory concentration (IC50) in the experiment on SW480 came to 6.88 µM; in experiment [1] it was 7.62 µM; in the experiment on MCF7, 5.13 µM; in experiment [2], 1.64 µM; in the experiment with A549 it was 7.4 µM.

Take `Cc1n(CC(=O)N2CCC3(C)c4ccccc4N(Cc4ccccc4)C23)cc[n+]1CC(=O)c1ccccc1` (stereo not given): the IC50 (with SW480; in experiment [1]; in the experiment with MCF7; in experiment [2]; with A549) was greater than 20 µM throughout.

On to `Cc1nc2ccccc2n1CC(=O)N1CCC2(C)c3ccccc3N(C)C12` (stereo not given), for which the concentration for half-maximal inhibition (IC50) (in the experiment with SW480; in experiment [1]; in the experiment on MCF7; in experiment [2]; in the experiment with A549) was greater than 20 µM in each case.

In the case of `CN1c2ccccc2C2(C)CCN(C(=O)Cn3ccnc3)C12` (stereo not given), the IC50 (in the experiment with SW480; in experiment [1]; in the experiment on MCF7; in experiment [2]; in the experiment with A549) was greater than 20 µM each time.

Consider `Cc1nccn1CC(=O)N1CCC2(C)c3ccccc3N(C)C12` (stereo not given), for which the IC50 (with SW480; in experiment [1]; in the experiment on MCF7; in experiment [2]; with A549) was greater than 20 µM throughout.
